A short description of this series: gradient 5% acetonitrile 3 min, to 50% in 2 min, to 85% in 15 min, held 3 min, 100 µL/min. To be noted: column: Zorbax Extend-C18 2.1 x 50 mm; eluents: water / acetonitrile, 0.1% formic acid. In short, it runs like this:
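The mobile phases were water and acetonitrile, each with 0.1% formic acid, pumped at 100 μL/min through a Zorbax Extend-C18 column (2.1 × 50 mm, 1.8 μm). Pure standards were injected as mixtures of ~100 molecules and detected by a quadrupole time-of-flight mass spectrometer in positive and negative ionization mode. Retention time came from computationally picked adduct peaks, each inspected by hand.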
For the compound `O=C(Nc1ccc2c(c1)CC(C(=O)NCCCc1ccccc1)CO2)c1cccs1` (stereo not drawn), the RP-LC retention time stood at 900 s. Then `Cc1cc(Cl)ccc1S(=O)(=O)NCC1CN(C)CC12CCCCC2` (stereo not drawn), with 713 s.

For `Cc1cc2nc(CSc3nnc(-c4ccc(Cl)cc4)o3)cc(=O)n2o1`, the RP-LC retention time was found to be 786 s. With `CCc1ccccc1N1C(=O)CN(S(=O)(=O)CC)CC1(C)C(=O)NC1CCCC1` (stereo not drawn) the figure was 826 s; with `Cc1noc([C@@H]2CN(Cc3ccc(Cl)cc3F)C[C@H]2CO)n1`, 600 s. Then `O=C(N[C@H]1C[C@@H]2C[C@H]1CN2C(=O)c1ccc2c(c1)OCO2)c1cccs1`, with 871 s; and `CCCC1=Nc2cc(C(=O)N3CCN(c4ccccn4)CC3)ccc2Sc2ccc(C)cc21`, with 802 s. With `O=C(C1CCN(c2ccc(-c3cccs3)nn2)CC1)N1CCN(c2ccccn2)CC1` the figure was 568 s; with `O=C(NCCCn1ncccc1=O)c1ccc(S(=O)(=O)N2CCCC2)cc1`, 621 s; with `COc1ccc(-c2ncc3c(n2)CCN(C(=O)Nc2ccccc2C(F)(F)F)C3)cc1`, 939 s. The compound `CCc1ccccc1NC(=O)N1CCCC1c1cc(C)no1` (stereo not drawn) displayed an RP-LC retention time of 845 s. With `CCCCOc1ccc(CNC(=O)C2CCN(C(=O)c3cc4ccsc4[nH]3)CC2)cc1` the figure was 937 s. With `O=C(c1ccco1)N1CCC(n2c(C3CCCC3)nc3cccnc32)C1` (stereo not drawn) the figure was 625 s; with `Cc1ccc(NC(=O)C2CCN(S(=O)(=O)c3c(C)[nH]c(C)c3C(=O)N3CCCC3)CC2)cc1F`, 753 s; with `CCc1ccc(S(=O)(=O)Nc2cc(-n3c(C)nc4ccccc4c3=O)ccc2F)s1`, 797 s.

In turn, `CCc1nc(OCC(=O)NCCCOC)c2c(-c3ccc(F)cc3)noc2n1` yielded an RP-LC retention time of 890 s. Take `O=C(Cc1nc(-c2ccccn2)n[nH]1)Nc1ccc(Cl)cc1`: the RP-LC retention time came out at 666 s. Then `CCCC(=O)Nc1cnc(N2CCNCC2)c(C(=O)N(CC(C)C)CC(C)C)c1`, with 652 s; and `CS(=O)(=O)N1CC[C@H]2CN(Cc3cn[nH]c3-c3ccc(F)cc3)C[C@@]2(CF)C1`, with 576 s. With `O=C(NCCc1ccccc1)c1cc2sccc2n1Cc1ccc(F)cc1` the figure was 1140 s. `Cc1ccc(C(=O)N2C[C@H](c3nc(-c4cccnc4)no3)[C@@H](C)C2)c(C)c1` gave an RP-LC retention time of 853 s. Then `CC1CCN(S(=O)(=O)c2cc(-c3nnc(C4CCC4)o3)co2)CC1`, with 999 s; and `O=C(NCCc1c[nH]c2ccccc12)C1CCCN(c2ccc(-n3ccnc3)nn2)C1` (stereo not drawn), with 568 s. With `C[C@@H]1CCC2[C@](C)(CO)[C@@H](O)CC[C@]2(C)[C@]12CCC(CO)(CCO)O2` (stereo partly drawn) the figure was 829 s; with `Fc1ccccc1CNc1nnc(-c2nc(C3CC3)no2)c2ccccc12`, 952 s.

In turn, `O=C1Nc2cc(C(=O)N3CCN(Cc4ccc5c(c4)OCO5)CC3)ccc2N2CCCCC12` (stereo not drawn) yielded an RP-LC retention time of 624 s.

On to `Cc1nc(CCNS(=O)(=O)c2cccnc2)no1`, for which the RP-LC retention time worked out at 603 s. With `O=C(c1ccc2c(c1)OCO2)N1CCc2cc(-c3csc(C4CC4)n3)ccc21` the figure was 1090 s; with `Cc1ccc(C)c(C(=O)N2CCCC(COc3ccc(C(=O)NC(C)C)cc3)C2)c1` (stereo not drawn), 916 s. Then `Cc1cc(N2CCN(C(=O)c3cccc(C(F)(F)F)c3)CC2)nc2nnc(C)n12`, with 649 s; and `CC(C)OCCCNC(=O)C1CCCN(c2nc3ccccc3n(Cc3ccccc3)c2=O)C1` (stereo not drawn), with 1070 s. With `COC(=O)COC(=O)c1cn(-c2cccc(OC)c2)c(=O)c2ccccc12` the figure was 924 s; with `O=C(O)c1ccc(NC(=O)N2C[C@@H]3C[C@@H](C2)c2cccc(=O)n2C3)cc1`, 592 s. `CCn1c(=O)c2ccccc2n(Cc2nc(-c3ccccc3C)no2)c1=O`: the RP-LC retention time turned out to be 1070 s.

`CCC(=O)N1CCc2cc(CNS(=O)(=O)c3ccccc3)ccc21` had an RP-LC retention time of 790 s. Take `Cc1ccc(-c2noc(Cn3ccn(-c4c(C)cccc4C)c(=O)c3=O)n2)cc1`: the RP-LC retention time was found to be 925 s.

As to `Cc1ccc(N2C(=O)CN(S(C)(=O)=O)CC2(C)C(=O)NCc2ccc(Cl)cc2)cc1C` (stereo not drawn), the RP-LC retention time worked out at 874 s. With `Cc1cc(C)cc(N2CCC(NC(=O)CC(C)(C)C)C2=O)c1` (stereo not drawn) the figure was 877 s; with `CC1CN(CCc2ccccc2)c2nc3c(c(=O)n(CCN4CCOCC4)c(=O)n3C)n2C1` (stereo not drawn), 680 s; with `CC(C)n1nc(CNC(=O)CNC(=O)c2ccccc2)c2ccccc21`, 740 s. Then `COc1ccc(S(=O)(=O)N2CCN(c3cc(C)c4ccccc4n3)CC2)cc1`, with 701 s. Then `COCC(=O)N(CC(=O)N1CCc2sccc2C1COc1cccc(OC)c1)CC(C)C` (stereo not drawn), with 894 s; and `COc1ccc(-c2csc(C)n2)cc1S(=O)(=O)N1CCN(c2cccc(C)c2C)CC1`, with 1270 s. Consider `CC(C)(C)n1nnnc1C1CC2(CCOCC2)C(=O)N1Cc1cccc(C(F)(F)F)c1` (stereo not drawn), for which the RP-LC retention time is 862 s. With `CCC(=O)N(C1CCOCC1)C1CCN(S(=O)(=O)c2ccc(C(C)C)cc2)CC1` the figure was 983 s; with `COc1ccc(NC(=O)c2c(O)c3cccnc3n(-c3ccc(F)cc3)c2=O)cc1`, 1250 s; with `Cc1ccc(CN(Cc2cc(=O)n3cc(Cl)ccc3n2)CC(C)C)cc1`, 624 s. Then `CCCN1N=C(C(=O)N2CCOCC2)S(=O)(=O)c2ccc(Cl)cc21`, with 809 s; and `CCc1nc(N2CCc3ccccc3C2)ncc1C(=O)O`, with 953 s; and `COc1ccc(-c2noc(C3CCCN3C(=O)Nc3cc(C)ccc3C)n2)cc1` (stereo not drawn), with 1020 s.

`COc1cccc(-c2nc(-c3cn(Cc4ccc(F)cc4)nn3)no2)c1`: the RP-LC retention time was 983 s. `CC(C)CC(=O)N1CCC(C(=O)N2CCCCCCNC(=O)CC2)CC1` returned an RP-LC retention time of 640 s.

Regarding `CNC(=O)C1CCN(C(=O)Nc2ccc(NC(=O)Nc3ccc(OC)cc3)cc2)CC1`, the RP-LC retention time was found to be 638 s. Then `CN(C)C(=O)c1cc2c(s1)CCC(C(=O)NCc1ccc(N3CCOCC3)cc1)C2` (stereo not drawn), with 655 s; and `CCCNC(=O)c1cc(=O)[nH]c2c(C)cccc12`, with 647 s. With `CCOc1cccc(C2c3[nH]c4ccccc4c3CCN2C(=O)Cc2cccs2)c1` (stereo not drawn) the figure was 1180 s.

For `Cc1ccc2c(c1)N(S(C)(=O)=O)CCC(C(=O)Nc1ccccc1Br)O2` (stereo not drawn), the RP-LC retention time is 1040 s. Compound `CCOC(=O)c1nc(NCc2ccc(OC(C)C)cc2)c2c(C)noc2n1` displayed an RP-LC retention time of 1000 s.

Values taken from the METLIN SMRT retention time set (Domingo-Almenara et al. 2019).
